Measurements taken from patent US12637498B2, “PDLIM2 as a biomarker for cancer and as an anti-cancer treatment target” (UNIVERSITY OF PITTSBURGH—OF THE COMMONWEALTH SYSTEM OF …, priority 2019, dated 2026).
“Also recorded” adds a separate entry of the source.

Key:
[1] = tested on: lung cancer induced by urethane; experiment: Urethane model of lung cancer, tumor examination; assay type: in vivo, mouse; conditions: for tumor number and tumor burden: WT mice, carboplatin and paclitaxel together
Protocol: (§1) Urethane model: 6-8-week-old mice under FVB/N background were intraperitoneally (i.p.) injected with urethane (1 g/kg body weight, Sigma-Aldrich, St. Louis, MO, USA) once a week for six weeks. All mice were sacrificed for lung tumor examinations seven (for no drug treatment experiments) or six (for drug treatment experiments) weeks post urethane treatment. For drug treatment experiments, the epigenetic agents 5-aza-dC (1 mg/kg body weight, Sigma-Aldrich, St. Louis, MO, USA) and MS-275 (1 mg/kg body weight, Selleckchem, Houston, TX, USA), chemotherapeutic drugs carboplatin (30 mg/kg body weight, AdipoGen, San Diego, CA, USA) and paclitaxel (15 mg/kg body weight, AdipoGen, San Diego, CA, USA), and/or PD-1 neutralizing antibody (200 μg/mouse, BioXCell, West Lebanon, NH, USA) were i.p injected as indicated in FIG. 4. Surface tumors in mouse lungs were counted by three blinded readers under a dissecting microscope, and tumor diameters were measured by microcalipers. K-Ras^G12D model: 6-8-week-old mice under FVB/N background were intranasally administered 1×10^7 plaque-forming units of Cre-expressing adenovirus (adenocre; Gene Transfer Vector Core, University of Iowa, Iowa City, IA). Three months post AdenoCre treatment, all mice were sacrificed for lung tumor examinations.
PDLIM2flx/flx/SP-C-rtTAtg/−/(tetO)7CMV-Cretg/tg (ΔSPC) mice under a pure FVB/N background and PDLIM2−/− mice under a pure BABL/C background have been described before (Sun et al., Nat. Commun. 2019. 10, 5324). For lung carcinogenesis, six to eight week old ΔSPC and wild type FVB/N mice were intraperitoneally (i.p.) injected with urethane (1 mg/g body weight, Sigma-Aldrich, St. Louis, MO, USA) once a week for six consecutive weeks, followed by different treatment as shown in FIGS. 45A and 49A. Mice were sacrificed for lung inflammation and tumor examinations at six weeks post urethane treatment. Surface tumors in mouse lungs were counted blinded under a dissecting microscope, and tumor diameters were measured by microcalipers. […]

RelA = experiment: Subcellular fraction-IB assay of nuclear RelA in lung cancer cells; assay type: cell-based, human; conditions: for RelA activation: lung cancer cells
PD-L1 [2] = experiment: qPCR of PD-L1 in lung cancer cells; assay type: cell-based, human
Source text: Mouse lung tissues and BAL cells were subjected to RNA extraction, RNA reverse transcription and real-time PCR as described (Li et al., Oncoimmunology 7, e1435250 (2018); Sun et al., Bio. Protoc. 7, pii: e2287 (2017)).

MDR1 = experiment: qPCR of MDR1 in A549 lung cancer cells; assay type: cell-based, human; conditions: with or without PDLIM2 reconstitution
PD-L1 [3] = experiment: IHC staining of PD-L1 in lung cancer (urethane model); assay type: in vivo, mouse; conditions: carboplatin and paclitaxel (chemotherapy)
Protocol: as §1
Mouse or tissues were excised, fixed in formalin, embedded in paraffin, and cut into […] sections. Sections were stained with H&E, or subjected to sequential incubations with different primary antibodies and peroxidase-conjugated goat anti-rabbit secondary antibodies. The human lung tumor tissue arrays were described previously (Sun et al., Oncogene 35, 2299-2310 (2016)).
Lung tissues were excised, fixed in formalin, embedded in paraffin, and cut into 4-μm-thick sections. Sections were stained with H&E, or subjected to sequential incubations with the indicated primary antibodies, biotinylated secondary antibodies and streptavidin-HRP.

human lung cancer cells = experiment: Cell growth assays; assay type: cell-based
Protocol: Cells were seeded into 12-well plates at a density of 5,000 cells per well, in the presence or absence of the indicated treatment. Cell density was determined by replacing the medium with 2 μmol/L of calcein AM in 1× dissociation solution (Trevigen) at the indicated time points. After 1 h of incubation, diesterase activity (relative fluorescence units) was measured with a Tecan Infinite 200 Microplate Reader, using an excitation wavelength of 485 nm and emission wavelength of 520 nm.

[4] = Toxicity: animal body weight and H&E staining of major organs; assay type: in vivo, mouse; conditions: mice with lung cancer; 1 mg/kg of 5-aza-dC and MS-275 twice per week for 6 weeks
BACH1 [5] = experiment: ChIP and nuclear fraction IB of BACH1 in RAW264.7 macrophages; assay type: cell-based, mouse
Protocol: Cells were collected after formaldehyde treatment. The chromatin DNA was extracted, broken into fragments of 300-1000 bp in length by sonication, and immunoprecipitated with antibodies to the target. IgG was used in immunoprecipitation as a control for nonspecific signal. DNA in the immunoprecipitation product was amplified by PCR.
Whole-cell extracts were prepared by lysing cells in RIPA buffer. Nuclear extracts were prepared by lysing pellets in insoluble nuclear buffer (20 mM Tris, pH 8.0, 150 mM NaCl, 1% [wt/vol] SDS, 1% [vol/vol] NP-40, and 10 mM iodoacetamide) after the cytoplasm was extracted with the hypotonic buffer (20 mM HEPES, pH 8.0, 10 mM KCl, 1 mM MgCl2, 0.1% [vol/vol] Triton X-100, and 20% [vol/vol] glycerol). The purity of the nuclear fractions was confirmed by checking Hsp90 (cytoplasm) or lamin B/C (nuclear fraction). All the lysis buffers were supplemented with 1 mM PMSF and a protease inhibitor cocktail (Roche Molecular Biochemicals). The cell extracts were used for […]. Briefly, the cell extracts were separated on polyacrylamide gels followed by electrotransfer onto nitrocellulose membranes. […] Specific immune complexes were detected by enhanced chemiluminescence as specified by the manufacturer (Western Lightning ECL Pro; Amersham).

PDLIM2 [6] = experiment: qPCR of PDLIM2 in RAW264.7 macrophages; assay type: cell-based, mouse
Source text: The indicated tissues or cells were subjected to RNA extraction, RNA reverse transcription and real-time PCR using trizol, reverse transcriptase, and Power SYBR Green PCR Master Mix (Thermo Fisher Scientific, Waltham, MA USA).

PDLIM2 [7] = experiment: qPCR analysis of PDLIM2 expression in human lung cancer cell lines; assay type: cell-based
BACH1 [8] = experiment: IF analysis of BACH1 nuclear translocation in AMs of mice with lung tumors; design: species or system mouse; conditions: mice with lung tumors (urethane); in vivo treatment, 5 mg/ml in drinking water
Protocol: (§2) The animal experiments were performed in accordance with the US National Institutes of Health (NIH) Guidelines on the Use of Laboratory Animals. All animals were maintained under pathogen-free conditions. […], […] and Lysozyme M-Cre mice have been described before (Sun et al., Nat Commun 2019; 10:5324; Zhou et al., Oncogene 2015; 34:3804-3814; Zhou et al., Cancer Immunol Res 2017; 5:257-268; Li et al., Oncoimmunology 2018; 7:e1435250). Luciferase-expressing mice, PD-1 deficient mice and CD80/CD86 deficient mice were purchased from The Jackson Laboratory. Except for the PD-1 deficient mice and CD80/CD86 deficient mice, which are under […] background, all other mice were backcrossed to FVB/N mice (The Jackson Laboratory) for more than ten generations, and then used to generate the experimental mice. […] Louis, MO, USA) once a week for six consecutive weeks (8-10). […] Surface tumors in mouse lungs were counted by three blinded readers under a dissecting microscope, and tumor diameters were measured by microcalipers. […] Stained proteins and their subcellular localizations were detected using a fluorescence microscope.

PDLIM2 [9] = experiment: qPCR and IF of PDLIM2 in AMs of mice with lung tumors; design: species or system mouse; conditions: mice with lung tumors (urethane); in vivo treatment
Protocol: as §2, with “microscope. […]” for “microscope.”

[10] = ΔSPC mice vs WT, carboplatin and paclitaxel combination therapy (Chemo)
[11] = ΔSPC mice, PD-1 blockade combined with carboplatin/paclitaxel chemotherapy

With CC(=O)O[C@H]1C(=O)[C@@]2(C)[C@H]([C@H](OC(=O)c3ccccc3)[C@]3(O)C[C@H](OC(=O)[C@H](O)[C@@H](NC(=O)c4ccccc4)c4ccccc4)C(C)=C1C3(C)C)[C@]1(OC(C)=O)CO[C@@H]1C[C@@H]2O [paclitaxel] the “tumor number and tumor burden” value [1] was “significant decrease in tumor number and tumor burden”, the “lung cancer treatment (tumor examination)” value (from here on “lung cancer treatment”) [1, 10] was “more resistant; also recorded: increased resistance” and the “lung cancer treatment” value [1, 11] was “resistant; also recorded: more resistant”. The “nuclear RelA (subcellular fraction-IB)” value (RelA; H460 human lung cancer cells reconstituted with PDLIM2) was “much lower paclitaxel induction of nuclear RelA”, the RelA activation (RelA) was “further induced” and the RelA activation (RelA; listed as Paclitaxel) was “increased RelA activation”. The “PD-L1 expression (qPCR)” value (PD-L1 [2]; lung cancer cells) was “PD-L1 induction”, the “MDR1 expression (qPCR)” value (MDR1) was “PDLIM2 suppressed paclitaxel induction of MDR1” and the “PD-L1 expression in lung cancer (IHC staining)” value (PD-L1 [3]) was “PD-L1 induction”. The “paclitaxel sensitivity (cell growth assays)” value (“paclitaxel sensitivity” for short) (human lung cancer cells; A549 cells with PDLIM2 reconstitution, consecutive 9-day paclitaxel cycles) was “increased paclitaxel sensitivity”, the “paclitaxel sensitivity” value (human lung cancer cells; H460 cells with PDLIM2 reconstitution, consecutive 9-day paclitaxel cycles) was “increased paclitaxel sensitivity” and the “paclitaxel sensitivity” value (human lung cancer cells; H460 human lung cancer cells with stable IκBα expression) was “overcame the paclitaxel resistance; also recorded: increased paclitaxel sensitivity”. For the same molecule, the “acquired resistance to paclitaxel” value (human lung cancer cells; lung cancer cells with ectopic PDLIM2 expression) was “overcame the acquired resistance; also recorded: block acquired resistance”.
In the case of N.N.O=C([O-])C1(C(=O)[O-])CCC1.[Pt+2] [carboplatin], the “tumor number and tumor burden” value [1] is reported as “significant decrease in tumor number and tumor burden”, the “lung cancer treatment” value [1, 10] is reported as “more resistant; also recorded: increased resistance” and the “lung cancer treatment” value [1, 11] is reported as “resistant; also recorded: more resistant”. For the same molecule, the “PD-L1 expression (qPCR)” value (PD-L1 [2]; Calu-6 human lung cancer cells) was “PD-L1 induction”, the “PD-L1 expression (qPCR)” value (PD-L1 [2]; lung cancer cells) was “PD-L1 induction” and the “PD-L1 expression in lung cancer (IHC staining)” value (PD-L1 [3]) was “PD-L1 induction”.
In the case of Nc1ncn([C@H]2C[C@H](O)[C@@H](CO)O2)c(=O)n1 [5-aza-dC, 5-azadeoxycitidine], the animal body weight [4] is reported as “body weight loss”.
In the case of OO [H2O2], the “nuclear BACH1 (nuclear fraction IB)” value (BACH1 [5]; RAW264.7 macrophages) is reported as “induced BACH1 nuclear translocation; also recorded: increased nuclear BACH1”, the “BACH1 and Pol II bound to the pdlim2 promoter (ChIP)” value (BACH1 [5]; RAW264.7 mouse macrophages, 500 μM, 4 hours) is reported as “detected BACH1 at the BACH1-binding site; also recorded: more BACH1 but less Pol II bound to the pdlim2 promoter” and the “PDLIM2 expression (qPCR)” value (PDLIM2 [6]; RAW264.7 macrophages treated with H2O2) is reported as “PDLIM2 expression decrease; also recorded: decreased PDLIM2”.
With CC(/C=C/C(=O)NO)=C\[C@@H](C)C(=O)c1ccc(N(C)C)cc1 [TSA, Trichostatin A] the “PDLIM2 expression (qPCR)” value (PDLIM2 [7]; H460 human lung cancer cells) was “PDLIM2 recovery” and the “PDLIM2 expression (qPCR)” value (PDLIM2 [7]; human lung cancer cell lines) was “induced PDLIM2 re-expression”.
With CC(=O)N[C@@H](CS)C(=O)O [NAC, N-Acetyl-L-cysteine] the “BACH1 nuclear translocation in AMs (IF)” value (BACH1 [8]) was “could efficiently be blocked; also recorded: inhibition of BACH1 nuclear translocation”, the “PDLIM2 in AMs (IF)” value (PDLIM2 [9]) was “PDLIM2 induction” and the “PDLIM2 in AMs (qPCR)” value (PDLIM2 [9]) was “could efficiently be blocked; also recorded: increased PDLIM2”. The “PDLIM2 expression (qPCR)” value (PDLIM2 [6]; RAW264.7 macrophages in LLC lung tumor cell co-culture) was “could block the PDLIM2 suppression; also recorded: recovery”.
